Test results taken from US9556236B1, “Compositions and methods for treating respiratory syncytial virus infection” (priority 2012, dated 2017).
“Also recorded” adds a separate entry of the source. Positions of bridges follow the written chain, without caps; N, C: chain ends. No end group written: not given here.

What was measured:
RG RSV [1] = test: HR2-D peptide series, prophylactic model of infection in Vero cells, GFP by flow cytometry; type: cell-based, respiratory syncytial virus; settings: for GFP from positive control: prophylactic
Method: (§1) 25K Vero or A549 cells grown in 48-well plates and supplied with DMEM (no serum) were treated with a dose of peptides or micelle-peptides (5 μM peptide/well) for 30 min. previous to infection with RSV. Infection was carried out at a 0.1 MOI and allowed in the cell culture for 1 h. After removal of viral supernatant, the cells were treated with a second dose of peptides or peptide-loaded micelles containing 5 μM peptide/well in DMEM (5% FBS, 1% P/S). Infection was followed for a period of 48 h through microscopy and quantified through flow cytometry.
Infection experiments with the HR2-D series were carried out in Vero cells following a prophylactic model of infection using RG RSV (MOI=0.1) strain. At 48 h after infection, the cells were analyzed for GFP (positive RSV infection) by flow cytometry. […] Compared to HR2-D0, HR2-D1 is about 30% lower. For the activity of the inhibitor peptide HR2-D (˜20% GFP from positive control), as shown by the loss of activity by 1.5 fold for HR2-D2 vs. 2.5 fold for peptide HR2-D1. Moreover, the presence of the one free cysteine which is not forming a disulfide bond might result in destabilizing the whole structure. HR2-D1 and HR2-D2 have a free cysteine residue at position 9 and 32, respectively while HR2-S, HR2-D3 and HR2-D4 contain only one pair of cysteines.

RSV RA2 = test: Prophylactic model of RSV infection in HEp2 cells, flow cytometry with FITC-labeled anti-RSV staining, RA2 RSV; type: cell-based, respiratory syncytial virus; settings: two doses 5 μM peptide, 0.2 MOI
Method: (§2) The effect of inhibitory peptides (HR2-A, HR2-B, HR2-C, HR2-D, HR2-E, HR2-S, HR2-D0, HR2-D1, HR2-D2, HR2-D3, HR2-D4) on RG RSV infection given by prophylactic method was visualized by inverted fluorescence microscopy (Olympus IX371) and quantitated by flow cytometry. For plaque assays, 50K HEp2 cells/well were seeded in 24-well plates and infected with RG RSV (0.1-1 MOI) in the presence of peptides for 1 h. The viral supernatant was removed and a second dose of peptides in methylcellulose/5% FBS was overlaid onto the cells. Plaques were visualized and quantified (3-5 days pi). Cellular uptake was characterized using confocal microscopy and flow cytometry. For confocal imaging, 50K cells (Vero, A549) were placed on a […] and grown overnight before treatment with MPs (5 μM peptide conc./dish) and incubated for 1 h at 37° C. […] Uptake was quantified by flow cytometry (BD FacsAria analyzer/sorter). […] Final cell pellet was suspended in 400 μl of 1×PBS and analyzed for green and/or red content.
(§3) The anti-RSV activity of peptides HR2-S, HR2-E, HR2-A, HR2-B, HR2-C, and HR2-D was tested in vitro following a prophylactic model of RSV infection in HEp2 cells described in the experimental section above. RG and RA2 RSV strains were used to quantify infection by flow and RA2 and A2 strains were used to quantitate the viral titers by immunochemistry. […]

RG RSV [2] = test: Prophylactic model of RSV infection in HEp2 cells, flow cytometry of GFP, RG RSV; type: cell-based, respiratory syncytial virus; settings: two doses 5 μM peptide, 0.2 MOI, vs untreated positive control
Method: as §2, §3

A2 RSV = test: RSV titers by plaque assay in HEp-2 cells in presence of peptide, A2 strain; type: cell-based, respiratory syncytial virus; settings: for inhibition of A2 infection by viral titers: 24-96 h after infection
Method: (§4) Growth and titration of the respiratory syncytial virus (RSV) strains A2, RG RSV (green-fluorescent tag), and rA2 were performed as previously described in the literature.^17,18 RSV was propagated in HEp-2 cells containing 0.1 PFU/cell in T-175 flasks supplied with 7 ml of 2% FBS, OptiMEM (virus yield 10^6-10^7 pfu/ml). Infection was allowed for 2 h. (at 37° C., 5% CO2) and then replaced with fresh media. The infection was allowed to progress until CPE (80-90%), typically happening after 3 days of incubation. Viral suspension was collected and combined with scrapped cells in to a vial and centrifuged at 3200 rpm for 10 min at 4° C. The culture supernatant was collected and mixed with 0.1 volumes of sterile magnesium sulfate (1M). Last, viral supernatant was stored in cryovials and stored in liquid nitrogen tank.^18,19 Viral titers were measured using carboxymethylcellulose plaque assay on HEp-2 cells grown to 80-90% confluency at 5% FBS/DMEM in a 24-well plate (70K cells per well).^17,18,19 Virus particles were visible and quantitated after immunochemistry treatment of the cells with primary anti-RSV F mouse monoclonal [RSV3216 (B016)] (1:1000 dilution) and secondary antibody against primary with HRP conjugate.
The effect of inhibitory peptides (HR2-A, HR2-B, HR2-C, HR2-D, HR2-E, HR2-S, HR2-D0, HR2-D1, HR2-D2, HR2-D3, HR2-D4) on RG RSV infection given by prophylactic method was visualized by inverted fluorescence microscopy (Olympus IX371) and quantitated by flow cytometry. For plaque assays, 50K HEp2 cells/well were seeded in 24-well plates and infected with RG RSV (0.1-1 MOI) in the presence of peptides for 1 h. The viral supernatant was removed and a second dose of peptides in methylcellulose/5% FBS was overlaid onto the cells. Plaques were visualized and quantified (3-5 days pi). Cellular uptake was characterized using confocal microscopy and flow cytometry. For confocal imaging, 50K cells (Vero, A549) were placed on a […] and grown overnight before treatment with MPs (5 μM peptide conc./dish) and incubated for 1 h at 37° C. Cells were placed in a live-cell environmental chamber at 37° C. with 5% CO2 and imaged using spinning-disk confocal microscopy (Olympus IX81 confocal microscope). Uptake was quantified by flow cytometry (BD FacsAria analyzer/sorter). Samples for flow cytometry were prepared using 50K cells/well seeded in 24-well plates and grown in DMEM plus 10% FBS and incubated with peptides at a concentration of 5 μM peptide/well for 30 min at 37° C. […] Final cell pellet was suspended in 400 μl of 1×PBS and analyzed for green and/or red content.
Following the same methodology as for flow, two doses of peptides were used, and virus inoculation was 0.2 MOI. Titers were quantified 24 to 96 h after infection (pi).

RA2 RSV = test: RSV titers by plaque assay in HEp-2 cells in presence of peptide, RA2 strain; type: cell-based, respiratory syncytial virus; settings: 24-96 h after infection
Method: as §4, with “The culture supernatant was collected and mixed with 0.1 volumes of sterile magnesium sulfate (1M).” left out, “(1:1000 dilution) and secondary antibody against primary with HRP conjugate.” left out
The effect of inhibitory peptides (HR2-A, HR2-B, HR2-C, HR2-D, HR2-E, HR2-S, HR2-D0, HR2-D1, HR2-D2, HR2-D3, HR2-D4) on RG RSV infection given by prophylactic method was visualized by inverted fluorescence microscopy (Olympus IX371) and quantitated by flow cytometry. […] Plaques were visualized and quantified (3-5 days pi). […]

RG RSV [3] = test: Free peptide and Cy5-labeled MPs, prophylactic model in Vero cells at low and high MOI, flow cytometry; type: cell-based, respiratory syncytial virus
Method: as §1
The effect of inhibitory peptides (HR2-A, HR2-B, HR2-C, HR2-D, HR2-E, HR2-S, HR2-D0, HR2-D1, HR2-D2, HR2-D3, HR2-D4) on RG RSV infection given by prophylactic method was visualized by inverted fluorescence microscopy (Olympus IX371) and quantitated by flow cytometry. […] Plaques were visualized and quantified (3-5 days pi). […] Uptake was quantified by flow cytometry (BD FacsAria analyzer/sorter). […] Final cell pellet was suspended in 400 μl of 1×PBS and analyzed for green and/or red content.
The hydrodynamic diameter of micelles with surface-conjugated peptides (MPs) was measured and compared to MPs with peptides also in the core (FMPs) (FIG. 6A). […] Subsequently experiments involved using Cy5 labeled peptides conjugated to the micelles and quantifying its activity against RG RSV infection by flow cytometry. […]

RG RSV [4] = test: Therapeutic antiviral activity of FMDs in A549 cells infected with RG RSV; type: cell-based, respiratory syncytial virus; settings: administered 24 h pi, RG RSV low MOI
Method: 25K A549 cells grown in 48-well plates and supplied with DMEM (no serum) were infected with RSV at a 0.1 MOI for 1 h. After washing the viral supernatant, cells were incubated in DMEM (5% FBS, 1% P/S) allowing progression of infection for different time periods (4 and 24 h), however, only 24 h is shown here. At these two time points, cells were treated with a dose of peptides or micelle-peptides containing 5 μM peptide/well. Infection was followed for a period of 48 h through microscopy and quantified through Image J statistical analysis software.
For testing the efficiency of FMDs, cytotoxicity was measured in A549 cells at different HR2-D peptide concentrations using FM2D and FM3D, respectively (FIG. 10A). EM2 and EM3 represent empty micelle control. A549 cells were infected according to therapeutic conditions, and FMD (6 μM FM2D, 5 μM FM3D) were administered 24 h pi. The images were visualized 48 h pi (FIG. 10B) and the inhibitory efficiency quantified using flow cytometry (FIGS. 10C and 10D). […] FM3D had good inhibitory activity by suppressing the expression of GFP by 65% as compared to the control.

rgRSV = test: In vivo model of rgRSV infection and intranasal prophylactic treatment; parameters: species or system BALB/c mice; settings: intranasal 50 μL of 125 μM 1 h before rgRSV 1×10^6 pfu, 24 h post infection, vs empty micelle control
Method: Ten week old BALB/c mice (n=4 per group) were anesthetized and treated intranasally with the indicated HR2D peptide (125 μM in 1.2% DMSO) or packaged in filled micelles or with chitosan nanoparticles and empty micelles control. One hour post reatment, three groups of mice were inoculated with a single dose of rgRSV at 1×10^6 pfu/mouse. Mice were sacrificed at 24 hours post infection and the noses harvested, sectioned, stained with DAPI and imaged for GFP using an Olympus fluorescent microscope.
To determine if the in vitro anti-RSV activity of HR2D translated to an in vivo context, in vivo testing was performed on mice. HR2D peptide itself, HR2 peptide with filled micelles, empty micelles as control, and HR2D peptide chitosan nanocomplexes were each administered by nasal drop (50 μL of 125 μM solution in 1.2% DMSO) to ten week old BALB/c mice followed by intranasal inoculation with a single dose of rgRSV (1×10^6 pfu) one hour later. Mice were sacrificed 24 hours after infection, and the noses harvested, sectioned, stained with DAPI, and subjected to fluorescence imaging. […] Thus, we find that pretreatment of rgRSV-infected mice with intranasal HR2D peptide markedly decreases nasal infection.

[5] = Hydrodynamic diameter by dynamic light scattering; type: physicochemical; settings: DLS, in water
Method: The hydrodynamic radius of functionalized micelles (FMDs), micelle-peptide complexes (MPs), FMP, Cy5-amine-coated micelles and Cy5-HR2-D in water was measured using dynamic light scattering and zeta potential (DLS, Microtrac). Aliquots for DLS were prepared by diluting the stock samples 1:5, passing them through a 0.2 μm syringe-filter and sonicating for 10 min to disrupt aggregation.

[6] = RG RSV MOI=0.1, 48 h after infection

DASISQVNECINQSLAFICKSDELLHNT (disulfide 10-19 (inferred)) [HR2-D4, ID NO.: 12]
activity less compared to HR2-S (RG RSV [1]; RG RSV MOI=0.1, 48 h): 2 fold

FDACISQVNECINQSLAFIRKSDELLHNVNAGKST (disulfide 4-11 (inferred)) [HR2-S, ID NO.: 2, one disulfide]
inhibition of RA2 RSV infection (RSV RA2): most effective inhibitor | inhibition of RG RSV infection (GFP expression) (RG RSV [2]): less GFP expression | GFP from positive control (RG RSV [1]; [6]): ~38% | inhibition of A2 infection by viral titers (A2 RSV): did not block A2 infection effectively | reduction in A2 viral titers (A2 RSV; 24 h to 96 h pi, 0.2 MOI, 5 μM peptide): about 0.2 fold | inhibition of RA2 infection by viral titers (RA2 RSV): did inhibit RA2 infection

DACISQVNEKINQSLAFIRKSDELLCNT (disulfide 3-26 (inferred)) [HR2-D3, ID NO.: 11]
activity less compared to HR2-S (RG RSV [1]; RG RSV MOI=0.1, 48 h): 3 fold

DACISQVNECINQSLAFICKSDELLCNT (disulfide (positions not given here)) [HR2-D, ID NO.: 7, two disulfides]
infection blocked compared to positive control (RG RSV [3]; low MOI (0.1), prophylactic, 24 h pi): 85% | neutralization (peptide release comparison with controls) (RG RSV [3]; virus concentration not stated at this place): 70% | control of infection under therapeutic conditions (RG RSV [4]): did not control the infection significantly | RSV infection (GFP-positive cells) in nose sections (rgRSV): significantly decreased virus infected cells in the nose | RSV infection (GFP-positive cells) in nose sections (rgRSV; listed as HR2D peptide): marked reduction in GFP-positive nasal tissue | inhibition of RG RSV infection (GFP expression) (RG RSV [2]): greatest inhibition of RG RSV infection | GFP from positive control (RG RSV [1]; [6]): ~20% | hydrodynamic diameter [5]: 2 nm | inhibition of A2 infection by viral titers (A2 RSV): greater inhibitory activity | decrease in A2 titers (A2 RSV; 96 h pi, 0.2 MOI): 50,000 fold

DASISQVNEKINQSLAFIRKSDELLHNT (Chemically synthesized anti-RSV peptide) [HR2-D0, ID NO.: 8, control peptide with no cysteine]
inhibitory activity against RSV infection (RG RSV [1]; [6]): did not show any inhibitory activity; also recorded: lack of activity

DACISQVNEKINQSLAFICKSDELLCNT (not fully specified (bridges); cysteine pairing not given here) [HR2-D1, ID NO.: 9]
GFP lower compared to HR2-D0 (RG RSV [1]; RG RSV MOI=0.1, 48 h): about 30% | loss of activity relative to HR2-D (RG RSV [1]; RG RSV MOI=0.1, 48 h): 2.5 fold

DACISQVNECINQSLAFIRKSDELLCNT (not fully specified (bridges); cysteine pairing not given here) [HR2-D2, ID NO.: 10]
loss of activity relative to HR2-D (RG RSV [1]; RG RSV MOI=0.1, 48 h): 1.5 fold
